The values that follow come from ChEMBL document CHEMBL4400519, “Indazolylketones as new multitarget cannabinoid drugs” (Eur J Med Chem, 2019).

For series [1], the species on record is Homo sapiens. Kind of series: Antiproliferative activity against Alzheimer's patient derived lymphoblast cells at 5 uM after 72 hrs by MTT assay. Type of series: functional.
Series [2] is filed under the species Homo sapiens. Put plainly: Antiproliferative activity against Alzheimer's patient derived lymphoblast cells at 5 uM in presence of CB2 antagonist AM630 after 72 hrs by MTT assay. Type of series: functional. A general note: Tetrazolium assays rely on reduction of a dye to a coloured formazan, in cell work by metabolically active cells.
Series [3] deals with T1, Cannabinoid receptor (Mus musculus) (UniProt P47746+P47936). Kind of series: Agonist activity at cannabinoid receptor in ICR mouse vas deferens assessed as inhibition of electrically induced contractions at 9 x 10^-7 M after 10 mins in presence of CB1 antagonist AM251 relative to control. Type of series: protein assay.
T1 sequence (P47746 whole entry, looked up): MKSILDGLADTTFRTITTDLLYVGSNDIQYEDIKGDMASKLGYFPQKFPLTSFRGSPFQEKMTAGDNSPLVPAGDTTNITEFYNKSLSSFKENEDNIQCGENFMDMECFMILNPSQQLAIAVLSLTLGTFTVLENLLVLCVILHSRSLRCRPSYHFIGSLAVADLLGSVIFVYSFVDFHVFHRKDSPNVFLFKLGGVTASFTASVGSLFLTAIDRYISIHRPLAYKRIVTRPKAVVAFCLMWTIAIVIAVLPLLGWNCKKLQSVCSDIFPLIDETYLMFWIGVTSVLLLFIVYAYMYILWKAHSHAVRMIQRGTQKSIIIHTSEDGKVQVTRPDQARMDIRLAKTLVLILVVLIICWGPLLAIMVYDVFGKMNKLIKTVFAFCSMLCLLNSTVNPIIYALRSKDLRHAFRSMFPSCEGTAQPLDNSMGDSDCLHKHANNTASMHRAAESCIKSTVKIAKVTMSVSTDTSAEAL
T1 sequence (P47936 whole entry, looked up): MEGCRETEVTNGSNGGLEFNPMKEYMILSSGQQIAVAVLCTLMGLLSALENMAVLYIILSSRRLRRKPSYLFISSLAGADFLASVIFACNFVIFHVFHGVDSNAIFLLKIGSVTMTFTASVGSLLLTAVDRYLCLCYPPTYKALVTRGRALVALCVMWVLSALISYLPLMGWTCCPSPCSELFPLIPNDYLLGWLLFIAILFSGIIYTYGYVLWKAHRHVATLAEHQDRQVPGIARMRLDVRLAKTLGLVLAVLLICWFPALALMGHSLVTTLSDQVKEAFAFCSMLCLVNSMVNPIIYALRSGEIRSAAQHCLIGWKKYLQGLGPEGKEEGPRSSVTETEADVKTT
The target in series [4] is T1, Cannabinoid receptor (Mus musculus). Kind of series: Agonist activity at cannabinoid receptor in ICR mouse vas deferens assessed as inhibition of electrically induced contractions at 3 x 10^-7 M after 10 mins in presence of CB1 antagonist AM251 relative to control. Type of series: protein assay.
Series [5] has the same target. Kind of series: Agonist activity at cannabinoid receptor in ICR mouse vas deferens assessed as inhibition of electrically induced contractions at 9 x 10^-7 M after 10 mins relative to control. It is filed as protein assay.
A short description of series [6]: Antioxidant activity assessed as trolox equivalent of APPH-induced radical scavenging activity by ORAC-FL assay. It is filed as functional.
In series [7] the target is T1, Cannabinoid receptor (Mus musculus). Put plainly: Agonist activity at cannabinoid receptor in ICR mouse vas deferens assessed as inhibition of electrically induced contractions at 2.7 x 10^-6 M after 10 mins in presence of CB1 antagonist AM251 relative to control. Type of series: protein assay.
The target is the same in series [8]. Kind of series: Agonist activity at cannabinoid receptor in ICR mouse vas deferens assessed as inhibition of electrically induced contractions at 8.1 x 10^-6 M after 10 mins in presence of CB2 antagonist AM630 relative to control. It is filed as protein assay.
The target in series [9] is Beta-secretase 1 (Homo sapiens) (UniProt P56817). Put plainly: Inhibition of human BACE1 at 10 uM incubated for 60 mins using rhodamine-EVNLDAEFK-quencher substrate by FRET assay.
Sequence of Beta-secretase 1 (Homo sapiens) (P56817 whole entry): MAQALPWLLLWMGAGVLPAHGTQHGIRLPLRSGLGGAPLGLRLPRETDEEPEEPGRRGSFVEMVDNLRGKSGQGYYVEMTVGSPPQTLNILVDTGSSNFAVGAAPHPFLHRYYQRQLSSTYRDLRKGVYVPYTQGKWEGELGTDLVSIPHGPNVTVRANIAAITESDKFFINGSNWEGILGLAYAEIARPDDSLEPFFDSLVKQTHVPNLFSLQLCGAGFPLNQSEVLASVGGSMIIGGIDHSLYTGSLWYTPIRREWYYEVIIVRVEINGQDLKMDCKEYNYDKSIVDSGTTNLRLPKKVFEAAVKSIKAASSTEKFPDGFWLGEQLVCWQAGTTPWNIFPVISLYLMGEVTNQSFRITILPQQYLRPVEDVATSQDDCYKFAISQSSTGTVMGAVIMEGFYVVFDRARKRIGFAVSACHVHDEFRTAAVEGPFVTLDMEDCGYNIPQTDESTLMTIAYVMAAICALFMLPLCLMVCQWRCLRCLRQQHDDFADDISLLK
Series [10] deals with T1, Cannabinoid receptor (Mus musculus). Put plainly: Agonist activity at cannabinoid receptor in ICR mouse vas deferens assessed as inhibition of electrically induced contractions at 1.82 x 10^-5 M after 10 mins in presence of CB1 antagonist AM251 relative to control. Type of series: protein assay.
Series [11] has the same target. Put plainly: Agonist activity at cannabinoid receptor in ICR mouse vas deferens assessed as inhibition of electrically induced contractions at 1.82 x 10^-5 M after 10 mins relative to control. Type of series: protein assay.
The target is the same in series [12]. Kind of series: Agonist activity at cannabinoid receptor in ICR mouse vas deferens assessed as inhibition of electrically induced contractions at 10^-7 M after 10 mins in presence of CB2 antagonist AM630 relative to control. Type of series: protein assay.
Series [13] addresses T2, Acetylcholinesterase (Homo sapiens, UniProt P22303). Kind of series: Inhibition of human erythrocyte AChE using acetylthiocholine as substrate by Ellman's assay. For orientation: Ellman's reagent forms a yellow product with free thiols.
In series [14] the target is T1, Cannabinoid receptor (Mus musculus). Kind of series: Agonist activity at cannabinoid receptor in ICR mouse vas deferens assessed as inhibition of electrically induced contractions at 10^-7 M after 10 mins in presence of CB1 antagonist AM251 relative to control. Type of series: protein assay.
Series [15] has the same target. Put plainly: Agonist activity at cannabinoid receptor in ICR mouse vas deferens assessed as inhibition of electrically induced contractions at 2.7 x 10^-6 M after 10 mins in presence of CB2 antagonist AM630 relative to control. Type of series: protein assay.
The target is the same in series [16]. Kind of series: Agonist activity at cannabinoid receptor in ICR mouse vas deferens assessed as inhibition of electrically induced contractions at 2.7 x 10^-6 M after 10 mins relative to control. Type of series: protein assay.
Series [17] has the same target. Put plainly: Agonist activity at cannabinoid receptor in ICR mouse vas deferens assessed as inhibition of electrically induced contractions at 9 x 10^-7 M after 10 mins in presence of CB2 antagonist AM630 relative to control. Type of series: protein assay.
Series [18] has the same target. Kind of series: Agonist activity at cannabinoid receptor in ICR mouse vas deferens assessed as inhibition of electrically induced contractions at 8.1 x 10^-6 M after 10 mins in presence of CB1 antagonist AM251 relative to control. It is filed as protein assay.
Series [19] shares this target. Kind of series: Agonist activity at cannabinoid receptor in ICR mouse vas deferens assessed as inhibition of electrically induced contractions at 1.82 x 10^-5 M after 10 mins in presence of CB2 antagonist AM630 relative to control. Type of series: protein assay.
Series [20] concerns SH-SY5Y. Kind of series: Toxicity in human SH-SY5Y cells at 20 uM after 24 hrs by MTT assay. Type of series: cell-based.
Series [21] concerns the target T1, Cannabinoid receptor (Mus musculus). Put plainly: Agonist activity at cannabinoid receptor in ICR mouse vas deferens assessed as inhibition of electrically induced contractions at 3 x 10^-7 M after 10 mins in presence of CB2 antagonist AM630 relative to control. Type of series: protein assay.
Series [22] has the same target. Kind of series: Agonist activity at cannabinoid receptor in ICR mouse vas deferens assessed as inhibition of electrically induced contractions at 8.1 x 10^-6 M after 10 mins relative to control. Type of series: protein assay.
In series [23] the target is T3, Cholinesterase (Homo sapiens, UniProt P06276). Kind of series: Inhibition of human serum BChE using butyrylthiocholine as substrate by Ellman's assay.
T3 sequence (P06276 whole entry): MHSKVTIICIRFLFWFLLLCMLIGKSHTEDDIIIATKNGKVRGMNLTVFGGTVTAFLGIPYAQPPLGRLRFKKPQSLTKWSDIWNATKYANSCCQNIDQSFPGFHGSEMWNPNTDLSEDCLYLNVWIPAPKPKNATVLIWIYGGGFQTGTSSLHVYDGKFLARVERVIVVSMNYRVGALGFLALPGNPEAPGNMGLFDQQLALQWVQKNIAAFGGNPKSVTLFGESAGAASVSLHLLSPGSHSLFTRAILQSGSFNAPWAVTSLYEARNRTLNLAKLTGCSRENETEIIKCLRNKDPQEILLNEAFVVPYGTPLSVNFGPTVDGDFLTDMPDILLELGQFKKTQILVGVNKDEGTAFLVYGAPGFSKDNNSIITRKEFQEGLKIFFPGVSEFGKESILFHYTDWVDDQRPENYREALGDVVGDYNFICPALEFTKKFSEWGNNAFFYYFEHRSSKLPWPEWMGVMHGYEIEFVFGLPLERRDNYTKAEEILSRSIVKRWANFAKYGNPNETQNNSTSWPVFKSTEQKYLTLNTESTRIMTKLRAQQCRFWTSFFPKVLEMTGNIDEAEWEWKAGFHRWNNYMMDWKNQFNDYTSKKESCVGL
Series [24] addresses T2, Acetylcholinesterase. Kind of series: Inhibition of human erythrocyte AChE at 10 uM using acetylthiocholine as substrate by Ellman's assay.
Series [25] in a line: Antiproliferative activity against normal human derived lymphoblast cells at 5 uM after 72 hrs by MTT assay.
Series [26] has as its target T1, Cannabinoid receptor (Mus musculus). Put plainly: Agonist activity at cannabinoid receptor in ICR mouse vas deferens assessed as inhibition of electrically induced contractions at 10^-7 M after 10 mins relative to control. It is filed as protein assay.
The target is the same in series [27]. Put plainly: Agonist activity at cannabinoid receptor in ICR mouse vas deferens assessed as inhibition of electrically induced contractions at 3 x 10^-7 M after 10 mins relative to control. It is filed as protein assay.
Series [28] addresses T3, Cholinesterase. Put plainly: Competitive inhibition of human serum BChE using butyrylthiocholine as substrate by Lineweaver-Burk plot analysis.
Series [29] concerns the target T3, Cholinesterase. Kind of series: Inhibition of human serum BChE at 10 uM using butyrylthiocholine as substrate by Ellman's assay.

Active and inactive are the calls of the source. The rule behind the calls is not given here.

For orientation: inhibition means the change of the read-out against control, counted positive when it falls. One may read the IC50 as the midpoint of a concentration-inhibition curve. Read a low IC50 as greater potency in that assay.

T2 sequence (P22303 whole entry): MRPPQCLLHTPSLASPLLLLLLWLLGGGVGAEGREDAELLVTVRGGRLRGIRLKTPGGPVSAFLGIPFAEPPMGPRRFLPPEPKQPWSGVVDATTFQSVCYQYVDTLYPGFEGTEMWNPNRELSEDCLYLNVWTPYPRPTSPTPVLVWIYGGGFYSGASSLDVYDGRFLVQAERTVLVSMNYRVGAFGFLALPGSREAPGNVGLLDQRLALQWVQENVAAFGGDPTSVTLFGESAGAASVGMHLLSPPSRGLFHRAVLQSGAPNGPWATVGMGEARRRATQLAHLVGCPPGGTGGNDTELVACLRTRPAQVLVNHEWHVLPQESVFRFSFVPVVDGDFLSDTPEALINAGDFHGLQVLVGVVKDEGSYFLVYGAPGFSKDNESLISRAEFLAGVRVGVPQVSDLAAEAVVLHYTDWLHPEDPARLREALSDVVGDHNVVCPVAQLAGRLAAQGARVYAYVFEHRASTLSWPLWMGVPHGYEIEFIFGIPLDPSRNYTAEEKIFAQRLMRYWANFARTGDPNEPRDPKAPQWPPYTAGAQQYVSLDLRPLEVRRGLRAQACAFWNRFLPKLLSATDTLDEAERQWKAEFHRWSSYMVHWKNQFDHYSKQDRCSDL

Consider `O=C(c1ccccc1OCc1ccccc1)n1nc(OCCCN2CCCCC2)c2ccccc21`, for which the result in series [1] was Active. The outcome in [2] and in series [6] was inactive. In addition, the inhibition in [3] is -4.5%; in series [4], -6.8%; in series [5] it was 6.4%; in series [7] it was -1%; in series [8], 29.7%; in series [9], 38.4%. Besides, the inhibition is 74.8% in series [10]; 94.7% in series [11]; -3.1% in series [12]; -6.8% in [14]; -3% in [15]; 31.4% in series [16]. Moreover, the inhibition in series [17] was -0.5%; in [18], 26.4%; in series [19] it was 77.5%; in series [21], 1.1%; in series [22] it was 74.4%; in series [24], 31%. For the same compound, the IC50 is over 10 µM in [13] and 0.0025 µM in series [23]. Also, the figures for the Activity entry in series [20] and in [25] were “Toxic” and “Non-Toxic”, respectively.
In the case of `O=C(c1ccc2ccccc2c1)n1nc(OCCN2CCCCC2)c2ccccc21`, the inhibition in series [26] is 0.3%; in [5], -3.5%; in series [27], -1.2%; in series [9], 50%; in series [11], 18.2%; in series [16], -2.8%. Moreover, the inhibition in series [22] was determined as 4%; in [24], 43%. For the same compound, in [6], the outcome was inactive. For the same compound, the IC50 was over 10 µM in [13] and 4 µM in [23]. Besides, the inhibition entry in [28] is “Active”.
As to `O=C(c1ccc2ccccc2c1)n1nc(OCCCN2CCCCC2)c2ccccc21`, the inhibition in [26] was -2.1%; in [5], 0.1%; in series [27], -1%; in [8], 20.9%; in series [9] it was 38%; in [10] it was 49.5%. Also, the inhibition in [11] was 41.9%; in [15], -9.7%; in [16] it was 1.2%; in series [18], 0.7%; in series [19] it was 49.1%; in series [22], 17.2%. Moreover, in series [24], the inhibition is 33%. In addition, the outcome in [6] was inactive. Further, the IC50 in [13] was over 10 µM; in [23] it was 2.1 µM. Besides, the inhibition entry in [28] was “Active”.
As for `O=C(Cc1ccc(Cl)cc1)n1nc(OCCCN2CCCCC2)c2ccccc21`, the inhibition in [3] was -2.2%; in [26] it was -4.5%; in [4], -6.2%; in series [5], 0.4%; in series [29], 46%; in [27], -4.8%. Also, the inhibition is 12.4% in [7]; 86.6% in [8]; 50% in series [9]; 83.5% in series [10]; 94.2% in [11]; -7.8% in series [12]. In addition, the inhibition is -5.5% in series [14]; 19.7% in [15]; 7.3% in [16]; 2.4% in series [17]; 61.8% in series [18]; 96.1% in [19]. Moreover, the inhibition in series [21] is -3.2%; in series [22], 67.4%; in series [24] it was 43%. For the same compound, the result in series [6] was inactive. For the same compound, the IC50 in series [13] and in series [23] was over 10 µM throughout.
Regarding `O=C(c1cccc(Cl)c1Cl)n1nc(OCCCN2CCCCC2)c2ccccc21`, the outcome in series [1] was Active. For the same compound, the outcome in series [2] and in series [6] was inactive. Besides, the inhibition in [3] came to 8.7%; in [26], 1.4%; in series [4], 2%; in series [5], 14.3%; in [27], 6.2%; in [7], 15.2%. Besides, the inhibition in [8] is 62.7%; in [9], 45.1%; in series [10], 89.8%; in [11], 96.6%; in series [12] it was -3%; in [14], -0.7%. Moreover, the inhibition was 18.2% in series [15]; 27.4% in [16]; 10.4% in series [17]; 65.3% in series [18]; 85.5% in [19]; 0% in series [21]. Besides, the inhibition in series [22] amounted to 89.3%. Moreover, the IC50 in [13] stood at 17 µM; in series [23], 0.08 µM. The Activity result in series [20] is listed as “Toxic”; in series [25], “Non-Toxic”.
In the case of `O=C(c1cccc(Cl)c1F)n1nc(OCCCN2CCCCC2)c2ccccc21`, the outcome in [1] was Active. The result in [2] and in series [6] was inactive. In addition, the inhibition was 4.3% in series [3]; 9.6% in series [26]; -5.3% in series [4]; 18.7% in series [5]; 13.9% in [27]; 12.9% in [7]. Also, the inhibition was 12.9% in series [8]; 34% in series [9]; 76.1% in series [10]; 80.5% in series [11]; -1.5% in series [12]; -7.1% in series [14]. Further, the inhibition in [15] is -2.8%; in series [16] it was 24.9%; in series [17] it was -3.8%; in series [18] it was 54.9%; in series [19] it was 58.3%; in [21], 1.7%. In addition, the inhibition in series [22] was 54.7%; in series [24], 48%. For the same compound, the half-maximal inhibitory concentration (IC50) in [13] was over 10 µM; in series [23] it was 0.8 µM. The Activity result is “Toxic” in series [20] and “Non-Toxic” in [25].
